The text below walks through data of patent US20240189449A1, “LIPID NANOPARTICLES AND POLYNUCLEOTIDES ENCODING ORNITHINE TRANSCARBAMYLASE FOR THE TREATMENT OF ORNITHINE TRANSCARBAMYLASE DEFICIENCY” (ModernaTX, Inc., priority 2021, published 2024).

Data set [1] has as its system CD-1 mice. The experiment in a line: hEPO expression in serum after IV lipid nanoparticles with hEPO mRNA, CD-1 mice. The class given is in vivo. The settings on record: LNP with DSPC, cholesterol, Compound I; for Mean 6 hr hEPO Concentration: serum 6 hours after injection. Here is the method:
To assess potency of expression and metabolic stability of lipids of the disclosure, hepatocyte protein expression (hEPO) was measured following administration to mice of a nanoparticle of the disclosure.
Lipid nanoparticles including DSPC as a phospholipid, cholesterol as a structural lipid, Compound I as a PEG lipid, an ionizable amino lipid of Formula (II), and an mRNA encoding hEPO were intravenously administered to CD-1 mice. The concentration of hEPO in serum was tested at 6 hours after injection.

Data set [2] relates to CD-1 mice. The experiment in a line: Parent lipid remaining in liver at 24 h, CD-1 mice (hEPO mRNA LNPs). The class given is in vivo. Conditions: for Approx. Percent Total Dose of Parent Lipid Remaining at 24 h: calculation assumes a 25 g mouse with a 1.5 g liver.
The test system of data set [3] is CD-1 mice. The data set can be described thus: NPI-Luciferase expression, ex vivo liver bioluminescence, CD-1 mice. The class given is in vivo. Conditions: mouse, IV. As for the experimental part:
(§1) To further assess potency of expression and metabolic stability of lipids of the disclosure, expression of luciferase was measured following administration to rodents of a nanoparticle of the disclosure comprising an mRNA containing luciferase.
(§2) Lipid nanoparticles including DSPC as a phospholipid, cholesterol as a structural lipid, Compound I as a PEG lipid, an ionizable amino lipid of Formula (II), and an mRNA encoding luciferase were intravenously administered to CD-1 mice and Sprague Dawley rats. The level of expression was tested via bioluminescence in the liver ex vivo at 6 hours after injection.

For data set [4], the system named is Sprague Dawley rats. The experiment in a line: NPI-Luciferase expression, ex vivo liver bioluminescence, Sprague Dawley rats. The class given is in vivo. Conditions: rat, IV. As for the experimental part: as §1, §2
Data set [5] concerns Sprague Dawley rats. The data set can be described thus: Parent lipid remaining in liver tissue at 24 h, rats. The settings on record: rat. The class given is in vivo.
The subject of data set [6] is Sprague Dawley rats. The experiment in a line: Tolerability in rats: reporter antibody construct expression (ELISA) and liver toxicity. The class given is in vivo. Conditions: IV. As for the experimental part:
To assess tolerability of the lipids of the disclosure, expression of a reporter antibody construct induced by sample formulations was assessed in rats.
Lipid nanoparticles including DSPC as a phospholipid, cholesterol as a structural lipid, Compound I as a PEG lipid, an ionizable amino lipid of Formula (II), and an mRNA encoding a reporter antibody construct were intravenously administered to Sprague Dawley rats. […] For the formulations tested, high levels of the reporter antibody were measured with minimal signs of liver toxicity (Table 15).

The subject of another data set is cynomolgus monkeys. The data set can be described thus: Luciferase level in livers ex vivo (ELISA), cynomolgus monkeys. Conditions: IV. Here is the method:
To the assess potency of expression and metabolic stability of lipids of the disclosure in different species, the expression of an mRNA was measured following administration to non-human primates of a nanoparticle of the disclosure containing the mRNA.
Lipid nanoparticles including DSPC as a phospholipid, cholesterol as a structural lipid, Compound I as a PEG lipid, an ionizable amino lipid of Formula (II), and an mRNA encoding luciferase were intravenously administered to cynomolgus monkeys. The level of luciferase in livers ex vivo was measured via ELISA at 6 hours after injection.

In data set [7] the test system is Sprague Dawley rats. The data set can be described thus: hEPO expression in serum after IV lipid nanoparticles with hEPO mRNA, Sprague Dawley rats. The class given is in vivo. The settings on record: serum 6 hours after injection. As for the experimental part: To further assess potency of expression and metabolic stability of lipids of the disclosure, hepatocyte protein expression (hEPO) was measured following administration to rats of a nanoparticle of the disclosure.
Lipid nanoparticles including DSPC as a phospholipid, cholesterol as a structural lipid, Compound I as a PEG lipid, an ionizable amino lipid of Formula (II), and an mRNA encoding hEPO were intravenously administered to Sprague Dawley rats. The concentration of hEPO in serum was tested at 6 hours after injection.

On to `CCCCCCCCC(CCCCCCCC)OC(=O)CCCCCCCN(CCO)CCCCCCCC(=O)OCCC(CCCC)CCCC` [Compound 22, 3-Butylheptyl 8-((8-(heptadecan-9-yloxy)-8-oxooctyl)(2-hydroxyethyl)amino)octanoate], for which, in the data set on CD-1 mice [1], the “hEPO AUC” value amounted to 2.03E+07 and the “Mean 6 hr hEPO Concentration” value came to 1264530 mIU/mL. In addition, in the data set with CD-1 mice [2], the “Parent Lipid Remaining (nmol/g liver tissue) at 24 h” value is on record as <0.1 nmol/g liver tissue and the “Approx. Percent Total Dose of Parent Lipid Remaining at 24 h” value is <0.1%. In addition, the “Mean 6 h ex vivo Liver NPI-Luciferase Total Flux” value with CD-1 mice [3] was 300960000 photons/second. For the same molecule, in the data set with Sprague Dawley rats [4], the “Mean 6 h ex vivo Liver NPI-Luciferase Total Flux” value is 2227666667 photons/second. Also, the “Approx. Percent Total Dose of Parent Lipid Remaining at 24 h” value in the data set with Sprague Dawley rats [5] is reported as <0.1%^. In addition, the “Mean Reporter Antibody Construct Concentration” value in the data set with Sprague Dawley rats [6] came to 1113642 ng/mL. In the data set with cynomolgus monkeys, the “Mean 6 h NPI-Luciferase Concentration” value was 1322 ng/g.
For the molecule `CCCCCC(CCCCC)CCOC(=O)CCCCCCCN(CCO)CCCCCCCC(=O)OCCC(CCCCC)CCCCC` [Compound 25], in the data set on CD-1 mice [1], the “hEPO AUC” value is recorded as 1.07E+07 and the “Mean 6 hr hEPO Concentration” value was found to be 591942 mIU/mL. Moreover, in the data set with CD-1 mice [2], the “Parent Lipid Remaining (nmol/g liver tissue) at 24 h” value is reported as 0.1 ± 0.04 nmol/g liver tissue and the “Approx. Percent Total Dose of Parent Lipid Remaining at 24 h” value is reported as <0.1%. In the data set on CD-1 mice [3], the “Mean 6 h ex vivo Liver NPI-Luciferase Total Flux” value was 336800000 photons/second. In the data set on Sprague Dawley rats [4], the “Mean 6 h ex vivo Liver NPI-Luciferase Total Flux” value is 4068000000 photons/second. Also, in the data set with Sprague Dawley rats [5], the “Approx. Percent Total Dose of Parent Lipid Remaining at 24 h” value is recorded as <0.1%^. For the same molecule, in the data set on Sprague Dawley rats [6], the “Mean Reporter Antibody Construct Concentration” value was 948617 ng/mL.
Regarding `CCCCCCCCC(CCCCCCCC)OC(=O)CCCCCCCN(CCCCCCCC(=O)OCCC(CCCC)CCCC)CCCNc1c(NC)c(=O)c1=O` [Compound 27, 3-Butylheptyl 8-((8-(heptadecan-9-yloxy)-8-oxooctyl)(3-((2-(methylamino)-3,4-dioxocyclobut-1-en-1-yl)amino)propyl)amino)octanoate], the “hEPO AUC” value in the data set with CD-1 mice [1] is recorded as 2.10E+07. Moreover, the figures for the “Mean 6 hr hEPO Concentration” value with CD-1 mice [1] and in the data set on Sprague Dawley rats [7] were 1316011 mIU/mL and 664431 mIU/mL, respectively. Moreover, in the data set with CD-1 mice [2], the “Parent Lipid Remaining (nmol/g liver tissue) at 24 h” value came to 27 ± 4 nmol/g liver tissue. In addition, the “Approx. Percent Total Dose of Parent Lipid Remaining at 24 h” value in the data set with CD-1 mice [2] and with Sprague Dawley rats [5] was 28% each time. Further, the “Mean 6 h ex vivo Liver NPI-Luciferase Total Flux” value with CD-1 mice [3] is given as 357720000 photons/second; with Sprague Dawley rats [4], 1215666667 photons/second. Further, the “Mean Reporter Antibody Construct Concentration” value with Sprague Dawley rats [6] is 833698 ng/mL. The “Mean 6 h NPI-Luciferase Concentration” value in the data set on cynomolgus monkeys turned out to be 878 ng/g.
As for `CCCCCC(CCCCC)CCOC(=O)CCCCCCCN(CCCCCCCC(=O)OCCC(CCCCC)CCCCC)CCCNc1c(NC)c(=O)c1=O` [Compound 30, Bis(3-pentyloctyl) 8,8′-((3-((2-(methylamino)-3,4-dioxocyclobut-1-en-1-yl)amino)propyl)azanediyl)dioctanoate], in the data set with CD-1 mice [1], the “hEPO AUC” value came to 2.40E+07. Also, the “Mean 6 hr hEPO Concentration” value in the data set with CD-1 mice [1] stood at 1592050 mIU/mL; in the data set on Sprague Dawley rats [7], 688780 mIU/mL. Besides, in the data set with CD-1 mice [2], the “Parent Lipid Remaining (nmol/g liver tissue) at 24 h” value worked out at 25 ± 4 nmol/g liver tissue. The entries for the “Approx. Percent Total Dose of Parent Lipid Remaining at 24 h” value in the data set on CD-1 mice [2] and with Sprague Dawley rats [5] were 26% and 25%, respectively. For the same molecule, the figures for the “Mean 6 h ex vivo Liver NPI-Luciferase Total Flux” value in the data set on CD-1 mice [3] and in the data set with Sprague Dawley rats [4] were 299800000 photons/second and 963633333.3 photons/second, respectively. Besides, the “Mean 6 h NPI-Luciferase Concentration” value in the data set with cynomolgus monkeys came out at 782 ng/g.
On to `CCCCCC(CCCCC)CCOC(=O)CCCCCCCN(CCCCCCCC(=O)OCCC(CCCC)CCCC)CCCNc1c(NC)c(=O)c1=O` [Compound 54, 3-Butylheptyl 8-((3-((2-(methylamino)-3,4-dioxocyclobut-1-en-1-yl)amino)propyl)(8-oxo-8-((3-pentyloctyl)oxy)octyl)amino)octanoate], for which, in the data set on CD-1 mice [1], the “hEPO AUC” value turned out to be 1.97E+07 and the “Mean 6 hr hEPO Concentration” value is on record as 647775 mIU/mL. Moreover, in the data set on CD-1 mice [2], the “Parent Lipid Remaining (nmol/g liver tissue) at 24 h” value stood at 12 ± 1 nmol/g liver tissue and the “Approx. Percent Total Dose of Parent Lipid Remaining at 24 h” value is 12%. The “Mean 6 hr hEPO Concentration” value in the data set on Sprague Dawley rats [7] was 476742 mIU/mL. Also, the “Mean 6 h NPI-Luciferase Concentration” value with cynomolgus monkeys was found to be 693 ng/g.
